# Target: HIV-1 PR (Human immunodeficiency virus type 1 group M subtype B, UniProt P04585)
# Test: HIV-protease inhibitory activity assay (FRET peptide substrate)
# Format: biochemical
# Settings: Test Example 1
# Outline: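 Compounds were preincubated with HIV-1 PR (0.83 ng) at room temperature in pH 4.8 NaAc buffer (0.5 M NaCl, EDTA, DTT, Tween 20), then HiLyte Fluor 488/QXL 520 FRET peptide (2 μmol/L final) was added for 60 min. Fluorescence was read at 485/535 nm, and IC50 was fitted by four-parameter logistic regression.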
row,SMILES,IC50 [nM]
1,COc1ccc(S(=O)(=O)N(CC(C)C)CC(O)C(Cc2ccc(-c3ccc(-c4sc5c(c4C(=O)O)CC(C)(C)CC5)cc3)cc2)NC(=O)OC2COC3(C)OCCC23)cc1 (stereo not drawn) [Compound I-183],2.39
2,COc1ccc(S(=O)(=O)N(CC(C)C)CC(O)C(Cc2ccc(OC3CCN(Cc4sc5c(c4C(=O)O)CC(C)(C)CC5)C3)cc2)NC(=O)OC2COC3(C)OCCC23)cc1 (stereo not drawn) [Compound I-184],1.64
3,COc1ccc(S(=O)(=O)N(CC(C)C)CC(O)C(Cc2ccc(OCc3cnn(-c4ccccc4)c3-c3sc4c(c3C(=O)O)CC(C)(C)CC4)cc2)NC(=O)OC2COC3(C)OCCC23)cc1 (stereo not drawn) [Compound I-185],1.71
4,COc1ccc(S(=O)(=O)N(CC(C)C)CC(O)C(Cc2ccc(OCc3cccc(OC)c3-c3sc4c(c3C(=O)O)CC(C)(C)CC4)cc2)NC(=O)OC2COC3(C)OCCC23)cc1 (stereo not drawn) [Compound I-186],2.14
5,COc1ccc(S(=O)(=O)N(CC(C)C)CC(O)C(Cc2ccc(OCc3nccnc3-c3sc4c(c3C(=O)O)CC(C)(C)CC4)cc2)NC(=O)OC2COC3(C)OCCC23)cc1 (stereo not drawn) [Compound I-187],2.21
6,CC1(C)CCc2sc(-c3cccnc3COc3ccc(CC(NC(=O)OC4COC5(C)OCCC45)C(O)CN(CC4CCCC4)S(=O)(=O)c4ccc5c(c4)CCO5)cc3)c(C(=O)O)c2C1 (stereo not drawn) [Compound I-189],2.53
7,COc1ccc(S(=O)(=O)N(CC(C)C)CC(O)C(Cc2ccc(N3CCc4cccc(-c5sc6c(c5C(=O)O)CC(C)(C)CC6)c4C3)cc2)NC(=O)OC2COC3(C)OCCC23)cc1 (stereo not drawn) [Compound I-191],2.22
8,COc1ccc(S(=O)(=O)N(CC(C)C)C[C@@H](O)[C@H](Cc2ccc(NC(=O)Nc3sc4c(c3C(=O)O)CC(C)(C)CC4)cc2)NC(=O)O[C@H]2CO[C@@]3(C)OCC[C@@H]23)cc1 [Compound I-192],2.27
9,COc1ccc(S(=O)(=O)N(CC(C)C)CC(O)C(Cc2ccc(-c3ccccc3-c3sc4c(c3C(=O)O)CC(C)(C)CC4)cc2)NC(=O)OC2COC3(C)OCCC23)cc1 (stereo not drawn) [Compound I-193],3.48
10,COc1ccc(S(=O)(=O)N(CC(C)C)CC(O)C(Cc2ccc(OCC3CCCN3Cc3sc4c(c3C(=O)O)CC(C)(C)CC4)cc2)NC(=O)OC2COC3(C)OCCC23)cc1 (stereo not drawn) [Compound I-194],1.63
11,COc1ccc(S(=O)(=O)N(CC(C)C)CC(O)C(Cc2ccc(OC3CCCN(Cc4sc5c(c4C(=O)O)CC(C)(C)CC5)C3)cc2)NC(=O)OC2COC3(C)OCCC23)cc1 (stereo not drawn) [Compound I-198],1.95
12,COc1ccc(S(=O)(=O)N(CC2CCCC2)CC(O)C(Cc2ccc(OCc3nn(C)cc3-c3sc4c(c3C(=O)O)CC(C)(C)CC4)cc2)NC(=O)OC2COC3(C)OCCC23)cc1 (stereo not drawn) [Compound I-199],2.35
13,COc1ccc(S(=O)(=O)N(CC(C)C)CC(O)C(Cc2ccc(OC3CCN(c4ccc(C#N)cc4-c4sc5c(c4C(=O)O)CC(C)(C)CC5)C3)cc2)NC(=O)OC2COC3(C)OCCC23)cc1 (stereo not drawn) [Compound I-200],5.08
14,COc1ccc(S(=O)(=O)N(CC(C)C)CC(O)C(Cc2ccc(OC3CCN(c4ccc(C#N)cc4-c4sc5c(c4C(=O)O)CC(C)(C)CC5)CC3)cc2)NC(=O)OC2COC3(C)OCCC23)cc1 (stereo not drawn) [Compound I-201],10.2
15,COc1ccc(S(=O)(=O)N(CC(C)C)CC(O)C(Cc2ccc(C3=CCC(c4sc5c(c4C(=O)O)CC(C)(C)CC5)CC3)cc2)NC(=O)OC2COC3(C)OCCC23)cc1 (stereo not drawn) [Compound I-202],12.1
16,COc1ccc(S(=O)(=O)N(CC(C)C)CC(O)C(Cc2ccc(OC3CCC(c4sc5c(c4C(=O)O)CC(C)(C)CC5)CC3)cc2)NC(=O)OC2COC3(C)OCCC23)cc1 (stereo not drawn) [Compound I-203],5.02
17,COc1ccc(S(=O)(=O)N(CC(C)C)CC(O)C(Cc2ccc(OCC3CCN(c4ccccc4-c4sc5c(c4C(=O)O)CC(C)(C)CC5)C3)cc2)NC(=O)OC2COC3(C)OCCC23)cc1 (stereo not drawn) [Compound I-204],2.04

row,SMILES,IC50 [nM]
1,COc1ccc(S(=O)(=O)N(CC(C)C)CC(O)C(Cc2ccc(OC3CCN(Cc4ccccc4-c4sc5c(c4C(=O)O)CC(C)(C)CC5)C3)cc2)NC(=O)OC2COC3(C)OCCC23)cc1 (stereo not drawn) [Compound I-207],2.1
2,COc1ccc(S(=O)(=O)N(CC(C)C)CC(O)C(Cc2ccc(NC(=O)c3sc4c(c3C(=O)O)CC(C)(C)CC4)cc2)NC(=O)OC2COC3(C)OCCC23)cc1 (stereo not drawn) [Compound I-208],1.86
3,COc1ccc(S(=O)(=O)N(CC(C)C)CC(O)C(Cc2ccc(N3CCN(c4ccc(-c5sc6c(c5C(=O)O)CC(C)(C)CC6)cc4)CC3)cc2)NC(=O)OC2COC3(C)OCCC23)cc1 (stereo not drawn) [Compound I-209],3.07
4,COc1ccc(S(=O)(=O)N(CC2CCCC2)CC(O)C(Cc2ccc(OC3CCN(C(=O)c4ccc(Cl)cc4-c4sc5c(c4C(=O)O)CC(C)(C)CC5)C3)cc2)NC(=O)OC2COC3(C)OCCC23)cc1 (stereo not drawn) [Compound I-210],2.15
5,COc1ccc(S(=O)(=O)N(CC(C)C)CC(O)C(Cc2ccc(OCc3ccccc3-c3ccc(Cn4nc(C(=O)O)c5c4CCC(C)(C)C5)cc3)cc2)NC(=O)OC2COC3(C)OCCC23)cc1 (stereo not drawn) [Compound I-213],1.76
6,COc1ccc(S(=O)(=O)N(CC(C)C)CC(O)C(Cc2ccc(N3CCc4ccc(-c5sc6c(c5C(=O)O)CC(C)(C)CC6)cc4C3)cc2)NC(=O)OC2COC3(C)OCCC23)cc1 (stereo not drawn) [Compound I-215],2.01
7,COc1ccc(S(=O)(=O)N(CC2CCCC2)CC(O)C(Cc2ccc(OCc3ccccc3Cn3nc4c(c3C(=O)O)CC(C)(C)CC4)cc2)NC(=O)OC2COC3(C)OCCC23)cc1 (stereo not drawn) [Compound I-216],1.93
8,COc1ccc(S(=O)(=O)N(CC(C)C)CC(O)C(Cc2ccc(-c3ccc(Cn4nc5c(c4C(=O)O)CC(C)(C)CC5)cc3)cc2)NC(=O)OC2COC3(C)OCCC23)cc1 (stereo not drawn) [Compound I-217],1.95
9,COc1ccc(S(=O)(=O)N(CC(C)C)CC(O)C(Cc2ccc(C(=O)N(C)Cc3ccccc3-c3sc4c(c3C(=O)O)CC(C)(C)CC4)cc2)NC(=O)OC2COC3(C)OCCC23)cc1 (stereo not drawn) [Compound I-219],2.06
10,COc1ccc(S(=O)(=O)N(CC(C)C)CC(O)C(Cc2ccc(N(C)C(=O)Nc3sc4c(c3C(=O)O)CC(C)(C)CC4)cc2)NC(=O)OC2COC3(C)OCCC23)cc1 (stereo not drawn) [Compound I-220],2.08
11,COc1ccc(S(=O)(=O)N(CC2CCCC2)CC(O)C(Cc2ccc(OCc3ccccc3Cn3nc(C(=O)O)c4c3CCC(C)(C)C4)cc2)NC(=O)OC2COC3(C)OCCC23)cc1 (stereo not drawn) [Compound I-221],2.11
12,COc1ccc(S(=O)(=O)N(CC(C)C)CC(O)C(Cc2ccc(N3Cc4ccc(-c5sc6c(c5C(=O)O)CC(C)(C)CC6)cc4C3)cc2)NC(=O)OC2COC3(C)OCCC23)cc1 (stereo not drawn) [Compound I-222],2.9
13,COc1ccc(S(=O)(=O)N(CC(C)C)CC(O)C(Cc2ccc(N3CC4CN(C(=O)c5sc6c(c5C(=O)O)CC(C)(C)CC6)CC4C3)cc2)NC(=O)OC2COC3(C)OCCC23)cc1 (stereo not drawn) [Compound I-223],1.97
14,COc1ccc(S(=O)(=O)N(CC(C)C)CC(O)C(Cc2ccc(N3CCN(C(=O)c4sc5c(c4C(=O)O)CC(C)(C)CC5)CC3)cc2)NC(=O)OC2COC3(C)OCCC23)cc1 (stereo not drawn) [Compound I-224],1.96
15,COc1ccc(S(=O)(=O)N(CC(C)C)CC(O)C(Cc2ccc(N3CCc4nc(-c5sc6c(c5C(=O)O)CC(C)(C)CC6)sc4C3)cc2)NC(=O)OC2COC3(C)OCCC23)cc1 (stereo not drawn) [Compound I-225],2.31
16,COc1ccc(S(=O)(=O)N(CC(C)C)CC(O)C(Cc2ccc(N3CCc4c(cccc4-c4sc5c(c4C(=O)O)CC(C)(C)CC5)C3)cc2)NC(=O)OC2COC3(C)OCCC23)cc1 (stereo not drawn) [Compound I-226],4.48
